Series [1] can be described thus: UVvis maximum absorption wavelength of selected dyes (Table 1). Conditions: source not stated. The class given is physicochemical.
Series [2] is described as follows: Spectroscopic characterization of SSIB-Cy7.5 in SAIB or LOIB markers. The class given is physicochemical.

In series [1], “2,11,20,29-Tetra-tert-butyl-2,3-naphthalocyanine” yielded a UVvis maximum of 712 nm.
For the molecule “6′-(Cyanine 7.5)-Isobutyric Sucrose [SSIB-Cy7.5]”, the “broad emission peak centre” value in series [2] (0.01% w/w in LOIB:xSAIB:EtOH:D&Cv2) is recorded as 845 nm. In series [2] (SAIB:xSAIB:EtOH 70:10:20), the “dye concentration up to which emission intensity increased (then self-quenching)” value worked out at 0.003 % w/w.
Turning to `CCCCOc1ccc(OCCCC)c2c1-c1nc3nc(nc4[nH]c([nH]c5nc(nc-2n1)-c1c(OCCCC)ccc(OCCCC)c1-5)c1c(OCCCC)ccc(OCCCC)c41)-c1c(OCCCC)ccc(OCCCC)c1-3` [1,4,8,11,15,18,22,25-Octabutoxy-29H,31H-phthalocyanine], the UVvis maximum in series [1] worked out at 762 nm.
For `CCC1=C(CC)c2cc3[nH]c(cc4nc(cc5[nH]c(cc1n2)c(CC)c5CC)C(CC)=C4CC)c(CC)c3CC` [2,3,7,8,12,13,17,18-Octaethyl-21H,23H-porphine], the UVvis maximum in series [1] came to 401 nm.
Still for that read-out and setting: the value for `CCCCCCCCOc1cc2c(cc1OCCCCCCCC)-c1nc-2nc2[nH]c(nc3nc(nc4[nH]c(n1)c1cc(OCCCCCCCC)c(OCCCCCCCC)cc41)-c1cc(OCCCCCCCC)c(OCCCCCCCC)cc1-3)c1cc(OCCCCCCCC)c(OCCCCCCCC)cc21` [2,3,9,10,16,17,23,24-Octakis(octyloxy)-29H,31H-phthalocyanine] was 701 nm.
Molecule `CC(C)(C)c1ccc2c(c1)-c1nc3nc(nc4[nH]c(nc5[nH]c(nc-2n1)c1cc(C(C)(C)C)ccc51)c1cc(C(C)(C)C)ccc41)-c1ccc(C(C)(C)C)cc1-3` [2,9,16,23-Tetra-tert-butyl-29H,31H-phthalocyanine] registered a UVvis maximum in series [1] of 696 nm.
For the molecule `CCCCOc1c2c(c(OCCCC)c3ccccc13)-c1nc-2nc2[nH]c(nc3nc(nc4[nH]c(n1)c1c(OCCCC)c5ccccc5c(OCCCC)c41)-c1c-3c(OCCCC)c3ccccc3c1OCCCC)c1c(OCCCC)c3ccccc3c(OCCCC)c21` [5,9,14,18,23,27,32,36-Octabutoxy-2,3-naphthalocyanine], in series [1], the UVvis maximum came out at 784 nm.
For `C1=Cc2nc1c(-c1ccccc1)c1ccc([nH]1)c(-c1ccccc1)c1nc(c(-c3ccccc3)c3ccc([nH]3)c2-c2ccccc2)C=C1` [5,10,15,20-Tetraphenyl-21H,23H-porphine], the UVvis maximum in series [1] amounted to 514 nm.
Still for that read-out and setting: as for `C#CCNC(=O)CCCCCN1C(=CC=CC=CC2=[N+](C)c3ccccc3C2(C)C)C(C)(C)c2ccccc21.[Cl-]` [Cy5-alkyne], the figure is 646 nm.
Still for that read-out and setting: the value for `C#CCNC(=O)CCCCCN1C(=CC=CC=CC2=[N+](C)c3ccc4ccccc4c3C2(C)C)C(C)(C)c2c1ccc1ccccc21.[Cl-]` [Cy5.5-alkyne] was 684 nm.
With `C#CCNC(=O)CCCCCN1/C(=C/C=C2C=C(/C=C/C3=[N+](C)c4ccc5ccccc5c4C3(C)C)CCC/2)C(C)(C)c2c1ccc1ccccc21.[Cl-]` [Cy7.5-alkyne], the UVvis maximum in series [1] turned out to be 788 nm.
In turn, `Cc1ccc(Nc2ccc(O)c3c2C(=O)c2ccccc2C3=O)cc1` [D&Cv2] returned an absorption peak in series [2] (UVvis in LOIB:xSAIB:EtOH:D&Cv2, 0.1% w/w D&Cv2, 0.01% w/w SSIB-Cy7.5) of 590 nm.
`c1ccc2c(c1)-c1nc-2nc2[nH]c(nc3nc(nc4[nH]c(n1)c1ccccc41)-c1ccccc1-3)c1ccccc21` [Phthalocyanine] returned a UVvis maximum in series [1] of 698 nm.
Take Cy7-alkyne: the UVvis maximum in series [1] is 750 nm.

(Values after patent US20210275692A1, “SOLUTION COMPRISING FLUORESCENT DYE AS FIDUCIAL MARKER” (DANMARKS TEKNISKE UNIVERSITET, priority 2018, published 2021).)
